Literature values as cited in US5482954A, “Signal transduction inhibitor triazole and diazole compounds” (priority 1994, dated 1996).

Test system: production of PGE2 and PGF2a
Details: Honn, et al.; cited from earlier work

## COc1ccc2c(c1)c(CC(=O)O)c(C)n2C(=O)c1ccc(Cl)cc1 [indomethacin]
  inhibition of phorbol ester-stimulated production of PGE2 and PGF2a: selectively inhibited
